Measured values taken from patent US7842324B2 (Senomyx, Inc., priority 2005, dated 2010).
pEC50: −log10 of the molar value.

What follows are compounds tested against T1, hT1R2/hT1R3 sweet receptor expressed in HEK293 cell line (Homo sapiens, UniProt Q7RTX0+Q8TE23) (assay: In vitro hT1R2/hT1R3-HEK293 taste receptor activation assay (FLIPR)). Settings: Table A; read-out: SWEET EC50.
T1 construct: expressed in transfected cells; host or cells: HEK293 derivative stably expressing Gα15 and hT1R2/hT1R3, clone S-9
T1 sequence (Q8TE23 20-839): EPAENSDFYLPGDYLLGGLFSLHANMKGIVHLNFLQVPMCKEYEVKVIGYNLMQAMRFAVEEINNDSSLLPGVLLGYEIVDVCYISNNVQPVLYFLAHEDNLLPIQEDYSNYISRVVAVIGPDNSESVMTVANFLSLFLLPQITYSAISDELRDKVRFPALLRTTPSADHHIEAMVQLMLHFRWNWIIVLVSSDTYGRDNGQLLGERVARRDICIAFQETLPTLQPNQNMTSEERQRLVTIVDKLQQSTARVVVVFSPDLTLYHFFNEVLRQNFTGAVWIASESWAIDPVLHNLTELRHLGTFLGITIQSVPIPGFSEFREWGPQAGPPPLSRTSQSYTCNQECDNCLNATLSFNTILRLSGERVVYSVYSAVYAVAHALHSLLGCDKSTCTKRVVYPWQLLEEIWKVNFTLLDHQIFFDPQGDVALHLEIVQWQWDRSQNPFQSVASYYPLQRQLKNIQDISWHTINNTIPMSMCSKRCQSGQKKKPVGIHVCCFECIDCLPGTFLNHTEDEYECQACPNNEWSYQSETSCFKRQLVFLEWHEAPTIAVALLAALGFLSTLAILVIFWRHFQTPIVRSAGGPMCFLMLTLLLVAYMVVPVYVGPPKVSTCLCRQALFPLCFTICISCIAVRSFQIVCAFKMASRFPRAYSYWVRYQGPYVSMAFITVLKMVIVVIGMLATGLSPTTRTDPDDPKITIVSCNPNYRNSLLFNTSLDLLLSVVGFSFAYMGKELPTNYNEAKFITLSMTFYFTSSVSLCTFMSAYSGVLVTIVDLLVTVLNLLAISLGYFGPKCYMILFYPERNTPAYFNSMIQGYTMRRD
T1 sequence (Q7RTX0 21-852): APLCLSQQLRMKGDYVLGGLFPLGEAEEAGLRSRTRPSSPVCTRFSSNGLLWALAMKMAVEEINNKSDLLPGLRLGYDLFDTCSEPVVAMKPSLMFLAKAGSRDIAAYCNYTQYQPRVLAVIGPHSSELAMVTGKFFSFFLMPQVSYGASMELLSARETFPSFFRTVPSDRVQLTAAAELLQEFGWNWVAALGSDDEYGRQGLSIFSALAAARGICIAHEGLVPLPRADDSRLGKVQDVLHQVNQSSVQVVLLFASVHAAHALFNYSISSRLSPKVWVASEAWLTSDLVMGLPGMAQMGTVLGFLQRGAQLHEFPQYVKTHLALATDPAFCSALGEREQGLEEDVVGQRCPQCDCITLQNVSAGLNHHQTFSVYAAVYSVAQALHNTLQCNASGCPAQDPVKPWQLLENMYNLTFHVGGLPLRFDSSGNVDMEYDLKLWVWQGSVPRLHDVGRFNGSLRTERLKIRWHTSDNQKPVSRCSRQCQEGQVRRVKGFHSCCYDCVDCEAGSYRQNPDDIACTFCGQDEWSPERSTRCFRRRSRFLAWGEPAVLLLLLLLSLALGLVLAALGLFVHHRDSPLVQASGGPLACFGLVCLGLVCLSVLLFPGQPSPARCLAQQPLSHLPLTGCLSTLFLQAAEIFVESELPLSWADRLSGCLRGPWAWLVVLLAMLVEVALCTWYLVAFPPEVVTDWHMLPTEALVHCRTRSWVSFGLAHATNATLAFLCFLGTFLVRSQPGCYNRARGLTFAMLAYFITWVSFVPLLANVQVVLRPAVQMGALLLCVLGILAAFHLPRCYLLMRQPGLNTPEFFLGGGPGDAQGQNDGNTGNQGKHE
Format: cell-based
Protocol: An HEK293 cell line derivative (Chandrashekar et al., Cell (2000) 100:703-711) that stably expresses Gα15 and hT1R2/hT1R3 (Li et al., Proc Natl Acad Sci USA (2002) 99:4692-4696), see also PCT Publication No. WO 03/001876 A2) was used to identify compounds with sweet taste enhancing properties.
Compounds covered in this document were initially selected based on their activity on the hT1R2/hT1R3-HEK293-Gα15 cell line (Li et al. vide supra). Activity was determined using an automated fluorometric imaging assay on a FLIPR instrument ([…], Molecular Devices, Sunnyvale, Calif.) (designated FLIPR assay). Cells from one clone (designated S-9 cells) were seeded into 384-well plates (at approximately 50,000 cells per well) in a medium containing DMEM Low Glucose (Invitrogen, Carlsbad, Calif.), 10% dialyzed fetal bovine serum (Invitrogen, Carlsbad, Calif.), 100 Units/ml Penicillin G, and 100 μg/ml Streptomycin (Invitrogen, Carlsbad, Calif.) (Li et al. vide supra) see also PCT Publication No. WO 03/001876 A2). S-9 cells were grown for 24 hours at 37° C. S-9 cells were then loaded with the calcium dye Fluo-3AM (Molecular Probes, Eugene, Oreg.), 4 μM in a phosphate buffered saline (D-PBS) (Invitrogen, Carlsbad, Calif.), for 1 hour at room temperature. After replacement with 25 μl D-PBS, stimulation was performed in the FLIPR instrument and at room temperature by the addition of 25 μl D-PBS supplemented with different stimuli at concentrations corresponding to twice the desired final level. Receptor activity was quantified by determining the maximal fluorescence increases (using a 480 nm excitation and 535 nm emission) after normalization to basal fluorescence intensity measured before stimulation.
For dose-responses analysis, stimuli were presented in duplicates at 10 different concentrations ranging from 60 nM to 30 μM. Activities were normalized to the response obtained with 400 mM D-fructose, a concentration that elicits maximum receptor response. EC50s were determined using a non-linear regression algorithm (using a Senomyx, Inc. software), where the Hill slope, bottom asymptotes and top asymptotes were allow to vary. Identical results were obtained when analyzing the dose-response data using commercially available software for non-linear regression analysis such as GraphPad PRISM (San Diego, Calif.).
For `CCC(C)CNC(=O)C(C)(C)c1ccc(-c2cncc(C#N)c2)cc1` (centres unmarked) [Compound A83], the pEC50 was 6.96.
With `CC(C)CNC(=O)C(C)(C)c1ccc(-c2cccc(C(C)C)c2)cc1` [Compound A16] the pEC50 was 5.22.
In the case of `CC[C@H](C)NC(=O)C(C)(C)c1ccc(-c2cncc(COC)c2)cc1` [Compound A64], the pEC50 was 5.89.
`CC(C)(C(=O)NCC(O)c1ccco1)c1ccc(-c2cncc(C#N)n2)cc1` (centres unmarked) [Compound A65] showed a pEC50 of 5.88.
Compound `CCCNC(=O)C(C)(C)c1ccc(-c2cncc(C#N)n2)cc1` [Compound A52] has a pEC50 of 6.33.
In the case of `CC(C)(C(=O)NC[C@@H]1CCCO1)c1ccc(-c2cncc(C#N)c2)cc1` [Compound A27], the pEC50 was 5.69.
In the case of `CC(C)(C(=O)N[C@@H](O)c1ccccc1)c1ccc(-c2cncc(C#N)c2)cc1` [Compound A28], the pEC50 was 5.69.
In the case of `CC(C)[C@@H](C)NC(=O)C(C)(C)c1ccc(-c2cncc(C#N)n2)cc1` [Compound A44], the pEC50 was 6.68.
For `CCC(CC)CNC(=O)C(C)(C)c1ccc(-c2cncc(C#N)c2)cc1` [Compound A91], the pEC50 was 6.21.
`CC(C)(C(=O)NCC(O)c1ccccc1)c1ccc(-c2cncc(C#N)c2)cc1` (centres unmarked) [Compound A61] gave a pEC50 of 5.93.
`CCCNC(=O)C(C)(C)c1ccc(-c2cncc(C#N)c2)cc1` [Compound A90] gave a pEC50 of 6.32.
With `CC[C@@H](C)NC(=O)C(C)(C)c1ccc(-c2cncc(C#N)c2)cc1` [Compound A85] the pEC50 was 6.82.
Work on `CCC(C(=O)NCC(C)C)c1ccc(-c2ccccc2)cc1` (centres unmarked) [Compound A93] yielded a pEC50 of 6.05.
Compound `CC(C)CNC(=O)C(C)(C)c1ccc(-c2ccccc2)c(F)c1` [Compound A3] has a pEC50 of 5.77.
In the case of `CC(C)CNC(=O)C(C)(C)c1ccc(-c2ccc3[nH]ccc3c2)cc1` [Compound A10], the pEC50 was 5.47.
Compound `COCOCc1c(C=O)cccc1-c1ccc(C(C)(C)C(=O)NCC(C)C)cc1` [Compound A23] has a pEC50 of 5.96.
Work on `Cc1cscc1-c1ccc(C(C)(C)C(=O)NCC(C)C)cn1` [Compound A59] yielded a pEC50 of 5.98.
In the case of `CCCOc1cccc(-c2ccc(C(C)(C)C(=O)NCC(C)C)cc2)c1` [Compound A17], the pEC50 was 5.25.
`CC(C)CNC(=O)C(C)(C)c1ccc(-c2cccc(S(C)(=O)=O)c2)cc1` [Compound A38] showed a pEC50 of 5.83.
With `CCC(CO)NC(=O)C(C)(C)c1ccc(-c2ccoc2)cc1` (centres unmarked) [Compound A77] the pEC50 was 5.90.
In the case of `CC(C)(C(=O)NC1CC1)c1ccc(-c2cncc(C#N)n2)cc1` [Compound A47], the pEC50 was 6.49.
`CC(C)[C@H](C)NC(=O)C(C)(C)c1ccc(-c2cncc(C#N)n2)cc1` [Compound A46] was tested, and the pEC50 was 6.51.
`CCC(COC)NC(=O)C(C)(C)c1ccc(-c2cncc(C#N)c2)cc1` (centres unmarked) [Compound A62] showed a pEC50 of 5.91.
For `CC(C)CNC(=O)C(C)(C)c1ccc(-c2cccnc2)cc1` [Compound A56], the pEC50 was 6.11.
`CC(C)CNC(=O)C(C)(C)c1ccc(-c2cccc(C#N)c2CO)cc1` [Compound A80] gave a pEC50 of 6.17.
`CCC(COC)NC(=O)C(C)c1ccc(-c2ccccc2)c(F)c1` (centres unmarked) [Compound A12] was tested, and the pEC50 was 5.35.

Same assay, conditions: read-out: EC50 for activation of a hT1R2/hT1R3 sweet receptor expressed in HEK293 cell line
`CC(C)CNC(=O)C(C)(C)c1ccc(-c2ccsc2)cc1` [Compound 7, N-isobutyl-2-methyl-2-(4-(thiophen-3-yl)phenyl)propanamide] gave a pEC50 of 5.91.
For `CCC(COC)NC(=O)C(C)(C)c1ccc(-c2ccccc2)c(F)c1` (centres unmarked) [Compound 6, 2-(2-fluorobiphenyl-4-yl)-N-(1-methoxybutan-2-yl)-2-methylpropanamide], the pEC50 was 5.42.
With `CC(C)CNC(=O)C(C)(C)c1ccc(-c2ccccc2C#N)cc1` [Compound 14, 2-(2′-cyanobiphenyl-4-yl)-N-isobutyl-2-methylpropanamide] the pEC50 was 5.72.
With `COc1cccc(-c2ccc(C(C)(C)C(=O)NCC(C)C)cc2)c1` [Compound 19, N-isobutyl-2-(3′-methoxybiphenyl-4-yl)-2-methylpropanamide] the pEC50 was 5.37.
Work on `CC(C)[C@@H](C)NC(=O)C(C)(C)c1ccc(-c2cncc(C#N)c2)cc1` [Compound 22] yielded a pEC50 of 6.85.
Work on `Cc1cccc(-c2ccc(C(C)(C)C(=O)NCC(C)C)cc2)c1` [Compound 15, N-isobutyl-2-methyl-2-(3′-methylbiphenyl-4-yl)propanamide] yielded a pEC50 of 5.52.
With `CC(C)CNC(=O)C(C)(C)c1cc(-c2ccccc2)no1` [Compound 33, N-isobutyl-2-methyl-2-(3-phenylisoxazol-5-yl)propanamide] the pEC50 was 5.17.
`CCOCc1cncc(-c2ccc(C(C)(C)C(=O)NCC(C)C)cc2)c1` [Compound 26, 2-(4-(5-(ethoxymethyl)pyridin-3-yl)phenyl)-N-isobutyl-2-methylpropanamide] was tested, and the pEC50 was 6.59.
Compound `CC(C)CNC(=O)C(C)(C)c1ccc(-c2ccccc2CO)cc1` [Compound 36, 2-(2′-(hydroxymethyl)biphenyl-4-yl)-N-isobutyl-2-methylpropanamide] has a pEC50 of 5.98.
`CCC(CC)NC(=O)C(C)(C)c1ccc(-c2cncc(C#N)c2)cc1` [Compound 21, 2-(4-(5-cyanopyridin-3-yl)phenyl)-2-methyl-N-(pentan-3-yl)propanamide] gave a pEC50 of 7.15.
`CC(C)CNC(=O)C(C)(C)c1ccc(-c2cncc(C#N)c2)cn1` [Compound 42, 2-(5′-cyano-3,3′-bipyridin-6-yl)-N-isobutyl-2-methylpropanamide] was tested, and the pEC50 was 4.97.
With `CC(C)CNC(=O)C(C)(C)c1ccc(-c2cccc(C#N)c2)cc1` [Compound 9, 2-(3′-cyanobiphenyl-4-yl)-N-isobutyl-2-methylpropanamide] the pEC50 was 6.70.
`CC(C)CNC(=O)C(C)(C)c1cnn(-c2ccccc2)c1` [Compound 31, N-isobutyl-2-methyl-2-(1-phenyl-1H-pyrazol-4-yl)propanamide] gave a pEC50 of 4.83.
In the case of `Cc1cscc1-c1ccc(C(C)(C)C(=O)NCC(C)C)cc1O` [Compound 35, 2-(3-hydroxy-4-(4-methylthiophen-3-yl)phenyl)-N-isobutyl-2-methylpropanamide], the pEC50 was 5.98.
`CC(C(=O)NCc1ccco1)c1ccc(-c2ccccc2)c(F)c1` (centres unmarked) [Compound 4, 2-(2-fluorobiphenyl-4-yl)-N-(furan-2-ylmethyl)propanamide] showed a pEC50 of 5.34.
